For this assay, the target named is cAMP and cAMP-inhibited cGMP 3',5'-cyclic phosphodiesterase 10A (Homo sapiens, UniProt Q9Y233). The experiment in a line: PDE10A assay. The gist of the method: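 Scintillation proximity readout of [3H]cGMP hydrolysis (50 nM final substrate, 15 min) by 2 ng/well human PDE10A after 15 min compound preincubation at RT, pH 7.5 with MgCl2. Four-parameter logistic fit gave IC50, reported as pIC50.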

Broadly, the IC50 is the concentration that gives 50% inhibition.

As to `O=C(NC1CCOCC1)c1nc(C2CC2)cnc1Nc1cncnc1` [Roche-Dataset for PDE10A, Compound 1059], 1790 nM corresponded to half-maximal inhibition (IC50).
In turn, `O=C(Nc1ccn(CCCC(F)(F)F)n1)c1nc(C2CC2)ccc1Nc1cncnc1` [Roche-Dataset for PDE10A, Compound 485] registered a 50% inhibitory concentration (IC50) of 6.66 nM. Against the preceding compound, the IC50 is about 270-fold lower.
As for `Cc1ncc(C)n2nc(/C=C/c3nc(Br)cn3C3CC3)nc12` [Roche-Dataset for PDE10A, Compound 964], the IC50 amounted to 6650 nM.
Next, `O=C(Nc1cccc(OC(F)(F)F)c1)c1nc(C2CC2)cnc1Nc1cncnc1` [Roche-Dataset for PDE10A, Compound 874]: 31 nM; `CN(C(=O)c1cnn(C)c1C(=O)N[C@@H]1CCn2cc(-c3ccccc3OC(F)F)nc2C1)C1CC1` [Roche-Dataset for PDE10A, Compound 192]: 7.98 nM.
As to `Cn1nc(N2CCCC2)nc1/C=C/c1nc(N2CCCC2)nn1C` [Roche-Dataset for PDE10A, Compound 550], the IC50 came out at 188 nM.
The result for `O=C(NCC(F)(F)F)c1nc(C2CC2)cnc1Nc1cncnc1` [Roche-Dataset for PDE10A, Compound 1124] reads 1240 nM; that for `O=C(Nc1cccc(F)c1C(=O)N1CCC1)c1nc(C2CC2)cnc1Nc1cncnc1` [US8703768, 309], 1.67 nM; that for `CNC(=O)c1ccc(F)cc1NC(=O)c1nc(C2CC2)cnc1Nc1cncnc1` [US8703768, 292], 0.68 nM.
For `CSc1ncc(Nc2cncnc2)c(C(=O)Nc2cc(-c3ccccn3)nn2C)n1` [Roche-Dataset for PDE10A, Compound 519], the IC50 worked out at 1360 nM.
For `O=C(Nc1nnc(-c2ccccn2)o1)c1nc(C2CC2)ccc1Nc1cncnc1` [US8470820, 64], the half-inhibitory concentration (IC50) came to 2580 nM.
The result for `Cn1ncc(C(=O)N2CCC2)c1C(=O)Nc1ccn2nc(-c3ccnc(Cl)c3)nc2c1` [Roche-Dataset for PDE10A, Compound 218] reads 6.9 nM.
Next, `CN(C)C(=O)c1cnn(C)c1C(=O)Nc1ccc2[nH]c(-c3ccccc3)nc2c1` [Roche-Dataset for PDE10A, Compound 195]: 0.36 nM.
Compound `O=C(c1nc(C2CC2)cnc1Nc1cncnc1)N1CCN(C2CCCCC2)CC1` [Roche-Dataset for PDE10A, Compound 1040] came in with a concentration for half-maximal inhibition (IC50) of 10000 nM.
Consider `Cn1cc(-c2ccccc2)nc1CCc1ccccn1` [Roche-Dataset for PDE10A, Compound 467], for which inhibition was half-maximal at 10000 nM (IC50). This counts as double-digit micromolar.
The result for `COCc1ccc(Nc2cncnc2)c(C(=O)Nc2ccnn2-c2ccccn2)n1` [Roche-Dataset for PDE10A, Compound 386] reads 1.47 nM.
Next, `O=C(Nc1ccn2nc(-c3ccccc3)nc2c1)c1c(C(=O)N2CCC2)cnn1CCF` [Roche-Dataset for PDE10A, Compound 131]: 1340 nM; `Cn1ncc(C(=O)NCc2cc(C(F)(F)F)ccn2)c1C(=O)Nc1ccn2cc(-c3ccccc3)nc2n1` [Roche-Dataset for PDE10A, Compound 1156]: 2760 nM; `Cn1ncc(C(=O)O)c1C(=O)Nc1ccn2nc(-c3cccnc3F)nc2c1` [Roche-Dataset for PDE10A, Compound 458]: 66 nM.
Turning to `Cn1cc(-c2ccccc2)nc1COc1nc2ccccc2c(=O)[nH]1` [Roche-Dataset for PDE10A, Compound 366], the half-inhibitory concentration (IC50) was 90 nM.
The result for `Cn1ncc(C(=O)N2CCC2)c1C(=O)Nc1cn(-c2cnccn2)cn1` [Roche-Dataset for PDE10A, Compound 906] reads 2440 nM.
Next, `Cn1nc(N2CCCC2)nc1CCc1nc2cnc(C#N)cn2n1` [Roche-Dataset for PDE10A, Compound 500]: 4170 nM; `C/C(=C\c1nc2c(C)ncc(C)n2n1)c1nc(N2CCCC2)nn1C` [Roche-Dataset for PDE10A, Compound 805]: 62 nM.
Next, `CCN(C)C(=O)c1cnn(CCF)c1C(=O)Nc1ccn2cc(-c3ccccc3)nc2n1` [Roche-Dataset for PDE10A, Compound 26]: 10000 nM.

(Values after BindingDB's records for doi:10.1007/s10822-022-00478-x (Roche Innovation Center Basel, F. Hoffmann-La Roche Ltd., 2022).)
